Test results published in patent publication US20240252688A1, “COMPOSITIONS AND METHODS FOR ENHANCED PROTEIN PRODUCTION” (HDT Bio Corp., priority 2021, published 2024).
Structures can show the parent of a compound that is named as a salt.

Assays:
[1] = tested on: A549-Dual cells; assay: Single-point kinase inhibitor library screen: nLuc expression from NP-1+mRNA-nLuc in IFN-treated cells; type: cell-based, human; conditions: compound 50 μM pre-treatment, NP-1+mRNA 20 ng/well + IFN; for fold induction at 50 µM: Homo sapiens, read-out: fold nLuc over RNA + IFN
Description: (§1) The cells produce secreted embryonic alkaline phosphatase (SEAP), under the control of the interferon beta […] minimal promoter fused to five NF-κB binding sites. The cells also secrete lucia luciferase under the control of IFIT2 promoter.
To measure protein expression from mRNA, which is the primary readout for compound down selection, mRNA encoding a secreted version of nanoluciferase (mRNA-nLuc) was used. Protein expression was measured via a luminometer using standard techniques.
As additional criterion, expression in compound treated cells was compared relative to mRNA-transfected cells without IFN (“RNA only”) (data not shown).
A library of small molecule kinase inhibitors was screened for the ability to enhance expression of mRNA-encoded genes when co-delivered with mRNA.

[2] = tested on: NF-κB; assay: Single-point screen: NFκB activation (SEAP reporter); type: cell-based, human; conditions: A549-Dual cells, compound 50 μM pre-treatment, NP-1+mRNA 20 ng/well + IFN; for fold induction at 50 µM: Homo sapiens, 24 h, read-out: fold NFkB over IFN
Text: as §1

[3] = tested on: IFIT2; assay: Single-point screen: IFIT2 activation (Lucia luciferase, QUANTI-Luc); type: cell-based, human; conditions: A549-Dual cells, compound 50 μM pre-treatment, NP-1+mRNA 20 ng/well + IFN; for fold induction at 50 µM: Homo sapiens, 24 h, read-out: fold IFIT over IFN
Text: as §1

[4] = tested on: A549-Dual cells; assay: Single-point screen: cell viability by CellTiter-Glo; conditions: A549-Dual cells incubated overnight with compound at 50 μM, then NP-1+mRNA 20 ng/well + IFN 1:50
Description: Finally, cell lysates were assayed with the CellTiter-GLO® assay (Promega) to obtain a luminescent-based measure of cell viability. In summary, the readouts from the high throughput screen included the primary measure of nLuc protein expression and three secondary readouts: IFIT, NF-κB and cell viability.
For each assay, A549-dual cells were plated at a seeding density of about 5×10^4 cells per well. Cells were incubated overnight with compounds at 50 microMolar (μM) in 1% v/v dimethyl sulfoxide (DMSO). For control wells, 1% DMSO was added to each well. After about 24 hours, the culture medium was removed, and cells were transfected with NP-1+mRNA at 20 ng/mRNA/well in Opti-MEM® media (Thermofisher). Interferon (IFN) was diluted to 1:50 in all test wells except for the RNA only wells and media only wells. Anti-IFN was diluted 1:1000 in “RNA+anti-IFN+IFN” wells. Cells were incubated for 4 hours, and culture medium was added to the Opti-MEM® medium. After 24 hours, assay supernatants were collected and analyzed for nLuc expression, IFIT2 (qLuc), and NFκB (qBLUE-SEAP™, InvivoGen) activation. Cells were then lysed, and cell viability was determined by CellTiter-Glo® (Promega) assay.

SMILES | fold induction at 50 µM [1] | fold induction at 50 µM [2] | fold induction at 50 µM [3] | fold nLuc over RNA + IFN [1] | % viability [4] | fold NFkB over IFN [2] | fold IFIT over IFN [3]
CN1CC[C@H](c2c(O)cc(O)c3c(=O)cc(-c4ccc(C(F)(F)F)cc4Cl)oc23)[C@H]1CO [(2S,3R)-Voruciclib (hydrochloride), 2-[2-chloro-4-(trifluoromethyl)phenyl]-5,7-dihydroxy-8-[(2S,3R)-2-(hydroxymethyl)-1-methylpyrrolidin-3-yl]chromen-4-one; hydrochloride] | 113 | 0.26 | 1.09 | – | – | – | –
Cc1[nH]ncc1-c1cc2nc([C@H]3CC4CCN3CC4)[nH]c(=O)c2s1 [(R)-Simurosertib] | – | – | – | 200.44 fold | 86% | 1.33 fold | 1.84 fold
COc1ccc(-c2c[nH]c3nccc(-c4ccsc4)c23)c(OC)c1 [ARN-3236, 3-(2,4-dimethoxyphenyl)-4-thiophen-3-yl-1-pyrrolo[2,3-b]pyridine] | – | – | – | 322.60 fold | 33% | 0.41 fold | 1.61 fold
CCN1CCN(Cc2ccc(NC(=O)Nc3ccc(Oc4cc(NC)ncn4)cc3)cc2C(F)(F)F)CC1 [AST 487, 1-[4-[(4-ethylpiperazin-1-yl)methyl]-3-(trifluoromethyl)phenyl]-3-[4-[6-(methylamino)pyrimidin-4-yl]oxyphenyl]urea] | 183 | 0.14 | 0.19 | – | 32% | – | –
Cl.O=C(NC1CCNCC1)c1n[nH]cc1NC(=O)c1c(Cl)cccc1Cl [AT7519 (Hydrochloride), 4-[(2,6-dichlorobenzoyl)amino]-N-piperidin-4-yl-1H-pyrazole-5-carboxamide; hydrochloride] | 123 | 0.43 | 0.88 | – | 42% | – | –
Cc1ncc(-c2ccnc(Nc3ccc(S(C)(=O)=O)cc3)n2)n1C(C)C [AZD-5438, 4-(1-isopropyl-2-methyl-1H-imidazol-5-yl)-N-(4-(methylsulfonyl)phenyl)pyrimidin-2-amine] | 353 | 0.38 | 2.39 | – | 46% | – | –
Cc1cc(Nc2cc(Cl)nc(Oc3ccc([N+](=O)[O-])cc3)n2)n[nH]1 [Autophinib, 6-chloro-NV-(5-methyl-1H-pyrazol-3-yl)-2-(4-nitrophenoxy)pyrindin-4-amine] | – | – | – | 128.89 fold | 49% | 0.78 fold | 1.09 fold
Cc1nc2c(NCc3cccc(S(C)(=O)=O)c3)nccn2c1-c1ccc(O)c(F)c1 [BF738735, 2-fluoro-4-[2-methyl-8-[(3-methylsulfonylphenyl)methylamino]imidazo[1,2-a]pyrazin-3-yl]phenol] | 239 | 0.62 | 0.37 | – | 93% | – | –
Cc1cnc(-c2cnc(NCCNc3ccc(C#N)cn3)nc2-c2ccc(Cl)cc2Cl)[nH]1 [CHIR-99021 (monohydrochloride), 6-[2-[[4-(2,4-dichlorophenyl)-5-(5-methyl-1H-imidazol-2-yl)pyrimidin-2-yl]amino]ethylamino]pyridine-3-carbonitrile] | 116 | 0.71 | 0.35 | – | – | – | –
COc1cc(Nc2ncc3ccn(-c4cccc(CCC#N)c4)c3n2)cc(OC)c1OC [Casein Kinase II Inhibitor IV, 3-[3-[2-(3,4,5-trimethoxyanilino)pyrrolo[2,3-d]pyrimidin-7-yl]phenyl]propanenitrile] | 126 | 0.46 | 0.79 | – | 18% | – | –
Oc1cccc(Nc2ncc(F)c(Nc3cccc(O)c3)n2)c1 [Compound R112, 3-[[5-fluoro-2-(3-hydroxyanilino)pyrimidin-4-yl]amino]phenol] | 521 | 1.16 | 1.33 | – | 76% | – | –
COCCOc1ccc(-c2cn(-c3ccccc3)c3nc[nH]c(=O)c23)cc1 [DMX-5804, 5-[4-(2-methoxyethoxy)phenyl]-7-phenyl-3H-pyrrolo[2,3-d]pyrimidin-4-one] | 267 | 1.35 | 0.4 | – | 92% | – | –
O=C1Nc2ccccc2/C1=C/c1ccccn1 [GSK-3 inhibitor 1] | – | – | – | 225.93 fold | 90% | 1.00 fold | 0.65 fold
CN(c1ccc(NC(=O)Nc2ccc(OC(F)(F)F)cc2)cc1)c1ccnc(Nc2cccc(S(N)(=O)=O)c2)n1 [GW806742X (hydrochloride), 1-[4-[methyl-[2-(3-sulfamoylanilino)pyrimidin-4-yl]amino]phenyl]-3-[4-(trifluoromethoxy)phenyl]urea] | 842 | 0.91 | 3.93 | – | 41% | – | –
C[C@H](Nc1cc(-c2cnn(C)c2)cc(Nc2cnccn2)n1)c1ccc(F)cc1.Cl [Ilginatinib hydrochloride, 6-N-[(1S)-1-(4-fluorophenyl)ethyl]-4-(1-methylpyrazol-4-yl)-2-N-pyrazin-2-ylpyridine-2,6-diamine; hydrochloride] | – | 1.39 | 3.17 | 484.10 fold | – | – | –
C[C@H](Nc1cc(-c2cnn(C)c2)cc(Nc2cnccn2)n1)c1ccc(F)cc1 [Ilginatinib, 6-N-[(1S)-1-(4-fluorophenyl)ethyl]-4-(1-methylpyrazol-4-yl)-2-N-pyrazin-2-ylpyridine-2,6-diamine] | – | 1.12 | 1.89 | 115.95 fold | – | – | –
C[C@@H](Oc1ccc2[nH]nc(/C=C/c3cnn(CCO)c3)c2c1)c1c(Cl)cncc1Cl [LY2874455, 2-[4-[(E)-2-[5-[(1R)-1-(3,5-dichloropyridin-4-yl)ethoxy]-1H-indazol-3-yl]ethenyl]pyrazol-1-yl]ethanol] | 150 | 0.3 | 0.09 | – | 58% | – | –
Cn1nc(C(C)(C)C)cc1NC(=O)Nc1ccc(Oc2ccncc2)cc1 [MAPK13-IN-1, 1-(5-tert-buty-2-methylpyrazol-3-yl)-3-(4-pyridin-4-yloxyphenyl)urea] | – | – | – | 207.89 fold | 59% | 0.66 fold | 1.93 fold
Cc1cc(O)c(-c2ccc([C@@H](C)CN)cc2)c2c1[nH]c(=O)c1sccc12 [OTS514, 9-[4-[(2R)-1-aminopropan-2-yl]phenyl]-8-hydroxy-6-methyl-5H-thieno[2,3-c]quinolin-4-one] | 349 | 0.35 | 0.4 | – | 66% | – | –
C[C@@]1(O)CCC[C@H]1n1c(=O)c(C(F)F)cc2cnc(NC3CCN(S(C)(=O)=O)CC3)nc21 [PF-06873600, 6-(difluoromethyl)-8-[(1R,2R)-2-hydroxy-2-methylcyclopentyl]-2-[(1-methylsulfonylpiperidin-4-yl)amino]pyrido[2,3-d]pyrimidin-7-one] | 120 | 0.83 | 1.08 | – | 55% | – | –
Cn1nccc1Nc1nccc(-c2ccn([C@H](CO)c3ccc(Cl)c(F)c3)c(=O)c2)n1 [Ravoxertinib hydrochloride, 1-[(1S)-1-(4-chloro-3-fluorophenyl)-2-hydroxyethyl]-4-[2-[(2-methylpyrazol-3-yl)amino]pyrimidin-4-yl]pyridin-2-one] | 162 | 1.17 | 0.24 | – | 96% | – | –
COc1ccc(CCNCc2ccc(OCc3ccc(Cl)nc3)c(OC)c2)cc1OC [SBE13 (Hydrochloride)] | – | – | – | 179.07 fold | 105% | 0.73 fold | 0.32 fold
CC[C@H](CO)Nc1nc(NCc2ccccc2)c2ncn(C(C)C)c2n1 [Seliciclib, (2R)-2-[[6-(benzylamino)-9-propan-2-ylpurin-2-yl]amino]butan-1-ol] | 118 | 0.55 | 1.32 | – | 45% | – | –
Cc1cc(F)c(C(=O)Nc2cccc(-c3nncn3C(C)C)n2)cc1-n1cnc(C2CC2)c1 [Selonsertib, 5-(4-cycloproplirnidazol-1-yl)-2-fluoro-4-methyl-N-[6-(4-propan-2-yl-1,2,4-triazol-3-yl)pyridin-2-yl]benzamide] | 112 | 0.9 | 1.43 | – | – | – | –
CN1CC[C@@H](c2c(O)cc(O)c3c(=O)cc(-c4ccc(C(F)(F)F)cc4Cl)oc23)[C@@H]1CO [Voruciclib (hydrochloride), 2-[2-chloro-4-(trifluoromethyl)phenyl]-5,7-dihydroxy-8-[(2R,3S)-2-(hydroxymethyl)-1-methylpyrrolidin-3-yl]chromen-4-one] | 274 | 0.63 | 0.8 | – | – | – | –
